{"source": "ChEMBL document CHEMBL1770110", "about": "“Pyrimido[4,5-d]azepines as potent and selective 5-HT2C receptor agonists: design, synthesis, and evaluation of PF-3246799 as a treatment for urinary incontinence” (Bioorg Med Chem Lett, 2011)", "key": {"[1]": {"test": "Aqueous solubility of the compound at pH 1.5 to 11.7", "assay_type": "physicochemical", "conditions": "buffer"}, "[2]": {"test": "Chemical stability of compound at pH 1 to 12", "assay_type": "physicochemical", "conditions": "buffer"}, "[3]": {"target": "T1, 5-hydroxytryptamine receptor 2B (Homo sapiens, UniProt P41595)", "T1 sequence (P41595 whole entry)": "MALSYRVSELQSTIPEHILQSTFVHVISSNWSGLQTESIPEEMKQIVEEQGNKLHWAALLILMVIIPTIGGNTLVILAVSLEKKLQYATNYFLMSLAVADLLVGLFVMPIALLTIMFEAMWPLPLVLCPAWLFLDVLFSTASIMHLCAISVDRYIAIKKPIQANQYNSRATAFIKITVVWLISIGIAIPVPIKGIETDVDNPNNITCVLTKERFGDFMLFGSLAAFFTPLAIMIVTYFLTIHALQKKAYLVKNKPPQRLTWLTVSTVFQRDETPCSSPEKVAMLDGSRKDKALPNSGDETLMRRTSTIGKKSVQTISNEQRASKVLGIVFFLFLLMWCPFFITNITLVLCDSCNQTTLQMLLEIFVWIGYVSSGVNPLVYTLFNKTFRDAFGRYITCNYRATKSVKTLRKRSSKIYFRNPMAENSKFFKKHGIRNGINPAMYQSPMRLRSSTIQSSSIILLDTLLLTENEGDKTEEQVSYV", "test": "Agonist activity at human 5HT2B receptor expressed in CHO-K1 cells assessed as increase of fluorescence based calcium mobilization by FLIPR assay", "assay_type": "functional, cell-based"}, "[4]": {"target": "T1, 5-hydroxytryptamine receptor 2B", "test": "Agonist activity at human 5HT2B receptor expressed in CHO-K1 cells assessed as increase of fluorescence based calcium mobilization by FLIPR assay relative to control", "assay_type": "functional, cell-based"}, "[5]": {"target": "T2, 5-hydroxytryptamine receptor 2C (Homo sapiens) (UniProt P28335)", "T2 sequence (whole entry)": "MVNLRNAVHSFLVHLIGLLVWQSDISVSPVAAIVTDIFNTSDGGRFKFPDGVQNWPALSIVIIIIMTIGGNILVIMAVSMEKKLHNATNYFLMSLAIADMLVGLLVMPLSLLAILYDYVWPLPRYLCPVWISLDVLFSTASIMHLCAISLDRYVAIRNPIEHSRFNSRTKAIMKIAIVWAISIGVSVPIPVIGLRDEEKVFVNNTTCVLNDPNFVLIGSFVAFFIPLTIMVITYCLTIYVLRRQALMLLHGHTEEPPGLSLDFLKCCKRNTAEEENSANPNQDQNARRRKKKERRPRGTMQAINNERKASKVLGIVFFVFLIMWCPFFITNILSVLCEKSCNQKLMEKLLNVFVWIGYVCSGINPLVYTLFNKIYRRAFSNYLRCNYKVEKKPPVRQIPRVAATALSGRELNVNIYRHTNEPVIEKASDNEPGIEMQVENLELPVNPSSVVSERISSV", "test": "Agonist activity at human 5HT2C receptor expressed in CHO-K1 cells assessed as increase of fluorescence based calcium mobilization by FLIPR assay relative to control", "assay_type": "functional, cell-based"}, "[6]": {"target": "T2, 5-hydroxytryptamine receptor 2C (Homo sapiens)", "test": "Agonist activity at human recombinant 5HT2C receptor expressed in Swiss mouse 3T3 cells with low expression increase of fluorescence based calcium mobilization by FLIPR assay relative to control", "assay_type": "functional, cell-based", "conditions": "NIH3T3"}, "[7]": {"target": "T3, 5-hydroxytryptamine receptor 2C (Homo sapiens, UniProt P28335)", "T3 sequence (P28335 whole entry)": "T2 sequence (whole entry)", "test": "Agonist activity at human 5HT2C receptor expressed in CHO-K1 cells assessed as increase of fluorescence based calcium mobilization by FLIPR assay", "assay_type": "functional, cell-based"}, "[8]": {"target": "T3, 5-hydroxytryptamine receptor 2C", "test": "Agonist activity at human 5HT2C receptor expressed in Swiss mouse 3T3 cells with low expression increase of fluorescence based calcium mobilization by FLIPR assay", "assay_type": "functional, cell-based"}, "[9]": {"target": "T3, 5-hydroxytryptamine receptor 2C", "test": "Displacement of [3H][…] from human 5HT2C receptor expressed in Swiss mouse 3T3 cells by scintillation proximity assay", "assay_type": "cell-based, NIH3T3"}, "[10]": {"target": "T2, 5-hydroxytryptamine receptor 2C (Homo sapiens)", "test": "Agonist activity at human 5HT2C receptor expressed in CHO-K1 cells assessed as increase of fluorescence based calcium mobilization at 10 uM by FLIPR assay relative to control", "assay_type": "functional, cell-based"}}, "note": "pEC50, pKi: −log10 of the molar value. The source made the active and inactive calls. The rule behind the calls is not given here.", "data": [{"compound": "O=C(O)/C=C/C(=O)O.c1ccc(Cc2ncc3c(n2)CCNCC3)cc1", "values": [{"measurement": "solubility", "setting": "[1]", "result": "> 10000", "unit": "µg/mL"}, {"measurement": "Stability", "setting": "[2]", "result": "Stable"}]}, {"compound": "Fc1ccccc1Cc1ncc2c(n1)CCNCC2", "values": [{"measurement": "pEC50", "setting": "[3]", "result": 6.66}, {"measurement": "Emax", "setting": "[4]", "result": 43, "unit": "%"}, {"measurement": "Emax", "setting": "[5]", "result": 65, "unit": "%"}]}, {"compound": "c1ccc(CCc2ncc3c(n2)CNCC3)cc1", "values": [{"measurement": "Activity", "setting": "[5]", "result": "inactive"}]}, {"compound": "FC(F)(F)c1cccc(Cc2ncc3c(n2)CCNCC3)c1", "values": [{"measurement": "pEC50", "setting": "[3]", "result": 6.80}, {"measurement": "Emax", "setting": "[4]", "result": 63, "unit": "%"}, {"measurement": "Emax", "setting": "[5]", "result": 44, "unit": "%"}]}, {"compound": "Cc1ccccc1Cc1ncc2c(n1)CCNCC2", "values": [{"measurement": "pEC50", "setting": "[3]", "result": 5.92}, {"measurement": "Emax", "setting": "[4]", "result": 56, "unit": "%"}, {"measurement": "Emax", "setting": "[5]", "result": 70, "unit": "%"}]}, {"compound": "c1ccc(CCc2ncc3c(n2)CCNCC3)cc1", "values": [{"measurement": "Emax", "setting": "[6]", "result": 40, "unit": "%"}, {"measurement": "pEC50", "setting": "[7]", "result": 6.96}, {"measurement": "pEC50", "setting": "[8]", "result": 5.32}, {"measurement": "Emax", "setting": "[5]", "result": 99, "unit": "%"}]}, {"compound": "c1ccc(CCCc2ncc3c(n2)CNCC3)cc1", "values": [{"measurement": "Activity", "setting": "[5]", "result": "inactive"}]}, {"compound": "Clc1ccccc1Cc1ncc2c(n1)CCNCC2", "values": [{"measurement": "pKi", "setting": "[9]", "result": 5.73}, {"measurement": "pEC50", "setting": "[3]", "result": 6.75}, {"measurement": "Emax", "setting": "[4]", "result": 36, "unit": "%"}, {"measurement": "Emax", "setting": "[10]", "result": 38, "unit": "%"}]}, {"compound": "c1ccc(CCc2ncc3c(n2)CCNC3)cc1", "values": [{"measurement": "Emax", "setting": "[10]", "result": 50, "unit": "%"}]}, {"compound": "c1ccc(Cc2ncc3c(n2)CCNC3)cc1", "values": [{"measurement": "Emax", "setting": "[10]", "result": 64, "unit": "%"}]}, {"compound": "Clc1cccc(Cc2ncc3c(n2)CCNCC3)c1", "values": [{"measurement": "pEC50", "setting": "[3]", "result": 7.52}, {"measurement": "Emax", "setting": "[4]", "result": 50, "unit": "%"}, {"measurement": "Emax", "setting": "[5]", "result": 56, "unit": "%"}]}, {"compound": "Cc1cccc(Cc2ncc3c(n2)CCNCC3)c1", "values": [{"measurement": "pEC50", "setting": "[3]", "result": 6.39}, {"measurement": "Emax", "setting": "[4]", "result": 62, "unit": "%"}, {"measurement": "Emax", "setting": "[5]", "result": 84, "unit": "%"}]}, {"compound": "Cc1ccc(Cc2ncc3c(n2)CCNCC3)cc1", "values": [{"measurement": "pEC50", "setting": "[3]", "result": 6.79}, {"measurement": "Emax", "setting": "[4]", "result": 80, "unit": "%"}, {"measurement": "Emax", "setting": "[5]", "result": 63, "unit": "%"}]}]}
